No end group written: not given here.
System: GI enzymes (pepsin and pancreatin)
Experiment: In vitro gastrointestinal (GI) digestion of synthetic peptides, with ACE inhibitory activity and α-amino group content before and after
Assay type: in vitro ADME
Conditions: pepsin pH 2.0, 37° C., 1 h, then pancreatin pH 7.5, 37° C., 2 h (FIG. 6)
Description: It is necessary for ACE inhibitory peptides to retain its activity in GI tract so that it can be absorbed into the bloodstream, where the peptide inhibitors can show their hypotensive effect. In vitro gastrointestinal digestion provides an easy process to imitate antihypertensive activity of peptides under oral administration. […] In vitro GI digestion was simulated according to the method of Zhu et al. (2008) with some modifications. One milligram of each sample was dissolved in 0.5 ml of 0.1 M KCl-HCl, and the pH was adjusted to 2.0 with 6 M HCl. Pepsin (1% enzyme/substrate, w/w) was added, and the mixture was incubated in a shaking water bath at 37° C. for 1 h, and the pH was then adjusted to pH 7.5. […] ACE inhibitory activity and α-amino groups content of the peptides before and after in vitro GI digestion were measured. […]
ACE inhibitory activity assay was carried out according to the methods of Cushman and Cheung (1971) and Wu et al. (2002) with some modifications. […] Absorbance was measured at 228 nm. The percentage of ACE inhibition was calculated as follows: […]
Content of α-amino groups was performed according to Adler-Nissen (1979). […] The mixture was left at room temperature for 30 min before an absorbance at 420 nm was monitored. […] The content of α-amino groups was expressed as leucine equivalents.

## VSVVQYSR [VSVVQYSR]
  Decrease of ACE inhibitory activity after GI digestion: ~19%
